Test results as given in US8609091B2, “Method for endocytic presentation of an immunosuppressive for the treatment of type 1 diabetes” (The Curators of the University of Missouri, priority 2002, dated 2013).

What was measured:
Assay type in all cases: cell-based, NOD mice
Splenic cells = experiment: IFNγ response of splenic cells from 14 week old mice; settings: INSβ peptide 18 μM, Ig-INSβ chimeras 1 μM; 24 hours; no rIL-10
Protocol: (§1) Detection of IL-10 and IFNγ was performed according to BD Pharmingen's standard protocol. The capture Abs were as follows: rat anti-mouse IL-10, JES5-2A5 and rat anti-mouse IFNγ, R4-6A2. The biotinylated anti-cytokine Abs were as follows: rat anti-mouse IL-10, JES5-16E3 and rat anti-mouse IFNγ, XMG1.2. Both antibodies were purchased from BD Pharmingen (San Diego, Calif.). ELISA for the detection of active TGFβ was preformed using the human TGFβ1 DuoSet kit (R&D systems, Minneapolis, Minn.) according to the manufacturer's instructions. […] All assays were read on a SpectraMAX 190 counter. Graded amounts of recombinant mouse IFNγ, IL-10, and TGFβ were included in all experiments for construction of standard curves. The cytokine concentration in culture supernatants was interpolated from the linear portion of the standard curve.
To test this premise, splenic and islet cells from 14 week old mice were stimulated with agg Ig-INSβ, which induces IL-10 production by the presenting APCs and secretion of IFNγ was measured. Splenic (a) and islet (b) cells (5×10^5 cells/well) from 14 week old female NOD mice were stimulated with the indicated antigen in the presence or absence of 1 ng of rIL-10 for 24 hours. The supernatant (100 μl/well) was used to measure IFNγ by ELISA as indicated in “Materials and Methods”. […]

islet cells = experiment: IFNγ response of islet cells from 14 week old mice; settings: INSβ peptide 18 μM, Ig-INSβ chimeras 1 μM; 24 hours; no rIL-10
Protocol: as §1
Islet-infiltrating cells were derived from 14 week old female NOD mice by collagenase digestion as previously described (36). […] Viability of the cells was determined by trypan blue exclusion.
To test this premise, splenic and islet cells from 14 week old mice were stimulated with agg Ig-INSβ, which induces IL-10 production by the presenting APCs and secretion of IFNγ was measured. […]

[1] = system: INSβ-specific T cell line; experiment: Presentation to INSβ-specific T cell line ([3H]thymidine proliferation); settings: irradiated NOD splenic APCs; peptides 10 μM, Ig-chimeras 1 μM; 3-day incubation
Protocol: T cell lines: A T cell line specific for INSβ peptide was generated by immunizing NOD mice with 100 μg of INSβ peptide in 200 μl PBS/CFA (vol/vol) subcutaneously (“s.c.”) in the footpads and at the base of each limb. After 10 days, the draining lymph nodes were removed, and T cells were stimulated in vitro for 2 rounds in the presence of irradiated (3000 rads), syngenic splenocytes, 5% T-Stim supplement (Collaborative Biomedical Products, Bedford, Mass.), and INSβ peptide (25 μg/ml). […]
(§2) Presentation of Ig-INSβ chimera to specific T cells was then determined. […] For presentation of INSβ peptide and Ig-INSβ (FIGS. 2(a) and 2(b) respectively), the activation was assessed by [^3H] thymidine incorporation since the T cells were from a line. Accordingly, 1 μCi [^3H]thymidine per well was added during the last 14 hours of a 3-day incubation period and the cells were harvested, and the radioactivity counted. For presentation of HEL peptide (FIG. 2(c)) and Ig-HEL (FIG. 2(d)), T cell activation was assessed by measuring IL-2 production as the HEL-specific cells were from a hybridoma. Accordingly, after 24 hours incubation IL-2 was measured in 100 μl supernatant by ELISA. […]

HEL-specific hybridoma = experiment: Presentation to HEL-specific T cell hybridoma (IL-2 production); settings: irradiated NOD splenocytes; peptides 10 μM, Ig-chimeras 1 μM; 24 hours
Protocol: T cell hybridomas: A HEL-specific T cell line was fused with the αβ TCR negative thymoma BW1100 (ATCC) using polyethylene glycol 4000 (Sigma, St. Louis, Mo.). Hybrids were then selected by supplementing the culture media with hypoxanthine-azaserine (Sigma). Resulting hybridomas were then screened for reactivity to HEL peptide by testing for production of IL-2 in the supernatant following stimulation with irradiated (3000 rads) splenocytes in the presence of 15 μg/ml HEL peptide. Positive hybridomas were then cloned by limiting dilution and used to assess presentation of HEL peptide and Ig-HEL chimera.
as §2

Row | Sequence | IFNγ response of splenic T cells (Splenic cells) | IFNγ response of islet T cells (islet cells) | proliferation of the INSβ-specific T cell line [1] | stimulation of HEL-specific hybridoma (IL-2 production) (HEL-specific hybridoma)
1 | SHLVEALYLVCGERG [INSβ peptide] | developed IFNγ responses | developed IFNγ responses | proliferated significantly | –
2 | AMKRHGLDNYRGYSL [HEL peptide] | – | – | unable to induce proliferation | able to stimulate the HEL-specific hybridoma
